# Measured values reported in patent US20240398773A1, “COMPOSITIONS COMPRISING OTESECONAZOLE” (Mycovia Pharmaceuticals, Inc., priority 2021, published 2024).
# Where two headings read alike, the source gives them in different places.
# What was measured:
# [1] = Physicochemical and biological properties of drug substance
# Text: As a BCS Class IIc drug, it may be anticipated that dissolution may be dependent upon the drug substance particle size. (Tsume et al., 2014). Micronization of the drug substance provided a means to deliver drug substance with a small and consistent particle size. A discriminatory dissolution method was developed to show the effect of drug substance particle size on dissolution to help ensure product quality. […] A high shear wet granulation process was developed to densify the product, and improve its flow to enable manufacturing, while maintaining good dissolution from the formulation.
# Candida species = experiment: Phase 2a dose-ranging study in moderate-to-severe acute VVC, effective therapeutic cure; assay type: in vivo, human; conditions: Per Protocol population
# Description: Oteseconazole has previously been evaluated in a Phase 2a multi-center, randomized, double-blind, active-controlled, parallel-group, dose-ranging study in patients with moderate-to-severe acute VVC. A total of 55 subjects with moderate-to-severe acute VVC (severity score ≥6 and a positive fungal KOH test) participated in the study across 4 dose groups: 1) oteseconazole 300 mg qd for 3 days: 2) 600 mg qd for 3 days: 3) 600 mg bid for 3 days; or 4) a single dose of fluconazole 150 mg followed by matching placebo. […] No safety signals of clinical concern were observed from the safety assessments.
# The efficacy of oteseconazole in the treatment of moderate-to-severe acute VVC was evaluated at the TOC visit in the Per Protocol population at the Day 28 test of cure (TOC) visit was, 87%, 86%, 86%, and 75% of subjects receiving the low, mid-, or high-dose oteseconazole or comparator arm of fluconazole, respectively, achieved an effective therapeutic cure (defined as having a total clinical signs and symptoms severity score of ≤1 and a negative culture for Candida species) in the Per Protocol population
# acute VVC episodes [2] = experiment: Study CL-017 efficacy versus fluconazole, acute VVC episodes; assay type: in vivo, human
# Tinea Pedis = experiment: Study CL-003 therapeutic cure of tinea pedis; assay type: in vivo, human
# Text: Even though the target concentrations were not reached for either dose group in this study, oteseconazole was efficacious in treating TP.
# [3] = Study CL-011 plasma concentrations; assay type: in vivo; conditions: human
# Description: A total of 217 subjects were randomized to receive oteseconazole and 109 subjects were randomized to receive placebo. All subjects were followed for 36 weeks after the end of treatment. Blood samples for determination of oteseconazole plasma concentrations were collected at Baseline, Day 14, Week 12, Week 24, Week 36, and Week 48 (End of Study (EOS]). Following the loading dose regimen of 150 mg oteseconazole QD for 7 days, the mean (SD) oteseconazole plasma concentration at Day 14 was 1676.2 (876.27) μg/L.
# Study CL-004 plasma PK = assay type: in vivo, human; conditions: for concentration at 24 h / concentration at 168 day / half-life / Tmax / Cmax / AUC(0-t): human, plasma; for concentration at 24 h: read-out: predicted minimum concentration (Cmin) at 24 hours after the final Day 3 dose; for half-life: read-out: median t1/2 (converted); for Tmax: read-out: median Tmax; for AUC(0-t): read-out: AUC0-8
# Description: The ty, values were estimated on the basis of blood sampling that was carried out between approximately 7 and 168 days after administration of the first dose. […] The oteseconazole concentrations on Day 168 remained measurable (127, 409, and 1300 ng/mL for the 300 mg QD, 600 mg QD, and 600 mg BID treatment groups, respectively) and remained at or above therapeutic concentrations for the 600 mg QD and 600 mg BID treatment groups.
# Based on the calculated Cmin values, only about 50% of the target was met for the 300 mg QD and 600 mg QD treatment groups, with the 600 mg BID treatment group reaching the target anticipated for the 600 mg QD group.
# [4] = Study CL-007 DDI and PKE cohorts, plasma PK; assay type: in vivo; design: AUC(0-t) / AUC(0-inf): concentration or dose not given beside the values; conditions: human; for AUC(0-t): read-out: AUC0-24
# Description: The median Tmax was 4.0 hours on Day 3 and 6.0 hours on Day 16. […] The increase in oteseconazole concentrations after 14 days of daily dosing was expected based on the long half-life of oteseconazole and are a consequence of accumulation and not of concomitant administration of midazolam.
# The geometric mean AUC0-24 was 26120 h*ng/ml and the geometric mean AUC0-∞ was 57290 h*ng/mL. These values were consistent with the oteseconazole plasma PK parameters calculated on Day 3 in the DDI cohort.
# acute VVC episodes [5] = experiment: Study CL-012 culture-verified acute VVC episodes; assay type: in vivo, human; conditions: 150 mg QD for 7 days, then 150 mg QW for 11 weeks
# Description: The average percentage of subjects with one or more culture-verified acute VVC episodes in the 150 mg oteseconazole group was 3.9% versus 39.4% in the placebo group.
# [6] = 300 mg, 300 mg QD treatment group
# [7] = 600 mg, 600 mg BID treatment group
# [8] = 600 mg, 600 mg QD treatment group
# [9] = DDI Cohort, Day 3, geometric mean
# [10] = DDI Cohort, Day 16, geometric mean
# [11] = PKE Cohort, Day 1, geometric mean
structure (smiles),measurement,setting,value
"O[C@@](Cn1cnnn1)(c1ccc(F)cc1F)C(F)(F)c1ccc(-c2ccc(OCC(F)(F)F)cc2)cn1 [Oteseconazole, oteseconazole]",BCS class,[1],BCS Class IIc
same,hygroscopicity,[1],slightly hygroscopic
same,stability to light,[1],stable in the presence of light
same,solubility,[1]; BCS classification,low solubility
same,chemical stability,[1]; alone and formulated into a drug product,excellent chemical stability
same,bulk density,[1]; micronized drug substance,approximately 0.2 g/mL
same,ionization,[1]; pH range of the gastrointestinal tract,unionized throughout the pH range of the gastrointestinal tract
same,subjects achieving effective therapeutic cure at Day 28 TOC visit,"Candida species; high dose, oteseconazole 600 mg bid for 3 days",86%
same,subjects achieving effective therapeutic cure at Day 28 TOC visit,"Candida species; low dose, oteseconazole 300 mg qd for 3 days",87%
same,subjects achieving effective therapeutic cure at Day 28 TOC visit,"Candida species; mid dose, oteseconazole 600 mg qd for 3 days",86%
same,efficacy of enhanced loading dose compared with fluconazole,acute VVC episodes [2]; 600 mg Day 1 and 450 mg Day 2 versus fluconazole three 150 mg doses 72 hours apart,noninferior to fluconazole
same,average percentage of subjects with 1 or more culture-verified acute VVC episodes,acute VVC episodes [2]; including subjects who had a recurrence during the Induction Phase,5.1%
same,therapeutic cure,Tinea Pedis; high dose group,21.4%
same,therapeutic cure,Tinea Pedis; low dose group,16.7%
same,therapeutic cure,Tinea Pedis; mid dose group,8.3%
same,concentration at 12 week,"[3]; 150 mg, Week 12, maximum concentration, read-out: mean (SD) plasma concentration",3400 ng/mL
same,concentration at 48 week,"[3]; 150 mg, Week 48, read-out: mean (SD) plasma concentration",1150 ng/mL
same,concentration at 14 day,"[3]; Day 14, after loading 150 mg QD for 7 days, read-out: mean (SD) plasma concentration",1680 ng/mL
same,share of target Cmin met,Study CL-004 plasma PK; 300 mg QD and 600 mg QD treatment groups,about 50%
same,concentration at 24 h,"Study CL-004 plasma PK; 300 mg, 300 mg QD dose group",705 ng/mL
same,concentration at 168 day,Study CL-004 plasma PK; [6],127 ng/mL
same,half-life,Study CL-004 plasma PK; [6],75.9 days
same,concentration at 24 h,"Study CL-004 plasma PK; 600 mg, 600 mg BID dose group",2830 ng/mL
same,concentration at 168 day,Study CL-004 plasma PK; [7],1300 ng/mL
same,half-life,Study CL-004 plasma PK; [7],160 days
same,concentration at 24 h,"Study CL-004 plasma PK; 600 mg, 600 mg QD dose group",1000 ng/mL
same,concentration at 168 day,Study CL-004 plasma PK; [8],409 ng/mL
same,half-life,Study CL-004 plasma PK; [8],133 days
same,Tmax,Study CL-004 plasma PK; 300 mg dose,4 h
same,Tmax,Study CL-004 plasma PK; 600 mg dose,5.5 h
same,Cmax,"Study CL-004 plasma PK; Day 1, 300 mg dose",407 ng/mL
same,AUC(0-t),"Study CL-004 plasma PK; Day 1, 300 mg dose",1.87 µg·h/mL
same,Cmax,"Study CL-004 plasma PK; Day 1, 600 mg dose",968 ng/mL
same,AUC(0-t),"Study CL-004 plasma PK; Day 1, 600 mg dose",4.23 µg·h/mL
same,AUC(0-inf),[4]; [9],49.4 µg·h/mL
same,Cmax,[4]; [9],1910 ng/mL
same,AUC(0-t),[4]; [9],24.6 µg·h/mL
same,Tmax,"[4]; DDI Cohort, Day 3, median",4 h
same,AUC(0-inf),[4]; [10],4880 µg·h/mL
same,Cmax,[4]; [10],11600 ng/mL
same,AUC(0-t),[4]; [10],243 µg·h/mL
same,Tmax,"[4]; DDI Cohort, Day 16, median",6 h
same,AUC(0-inf),[4]; [11],57.3 µg·h/mL
same,Cmax,[4]; [11],1900 ng/mL
same,AUC(0-t),[4]; [11],26.1 µg·h/mL
same,Tmax,"[4]; PKE Cohort, Day 1, median",6 h
same,average percentage of subjects with one or more culture-verified acute VVC episodes,acute VVC episodes [5],3.9%
